Laboratory results reported in patent US20240009150A1, “CAPSAICYNS IN THE TREATMENT OF LEAKY GUT” (AXICHEM AB [SE]/[SE], priority 2020, published 2024).
“Also recorded” adds a separate entry of the source. Read-outs that look alike come from different tables or passages of the source. Marks after values point to notes of the source that are not given here.

Columns and labels:
Type in all cases: cell-based
[1] = tested on: Chromobacterium violaceum CV026; assay: Quorum sensing inhibition, disc-diffusion assay with Chromobacterium violaceum CV026 (QS and antibacterial zones); conditions: for QS (zone of quorum sensing inhibition): disc diffusion, zone past the disk; for zone of inhibition at 7.81 µg/mL / zone of inhibition at 15.63 µg/mL / zone of inhibition at 31.13 µg/mL / zone of inhibition at 62.5 µg/mL / zone of inhibition at 125 µg/mL / zone of inhibition at 250 µg/mL / zone of inhibition at 500 µg/mL: Chromobacterium violaceum
Procedure: Chromobacterium violaceum CV026 is a violacein negative, double mini-Tn5 mutant from C. violaceum (ATCC 31532) that was used to identify quorum sensing inhibition.
A stock solution of 1000 ug of compound V and capsaicin was prepared by dissolving 1000 μg in 100 μl of ethanol and 900 μl of sterile water. The stock solutions were sequentially diluted with double volumes of solvent (10% aqueous ethanol solution) to yield 500/250/125/62.5/31.25/15.625/7.81 μg/ml test solutions.
Chromobacterium violaceum CV026 was used to determine the anti-quorum sensing activity. Inducer N-hexanoyl homoserine lactone (C6-HSL) was purchased from Sigma-Aldrich. CV026 was cultivated in Luria-Bertani (LB) medium (LB, 5 g yeast extract, 10 g tryptone, 5 g NaCl, 1 L water) at 30° C. overnight under aerobic conditions. A standard disc-diffusion assay was used to detect anti-quorum sensing activity of V and capsaicin by making use of double layer culture plates. 15 ml LB medium (2.5% agar) was overlaid with 15 ml LB (1.0% agar) containing 50 μl C. violaceum CV026 with 20 μg/ml-1 kanamycin and 50 ng/ml C6-AHL. Test concentrations of V and capsaicin were added onto sterile disks (8 mm diameter) and placed on the agar. The plates were then incubated overnight at 30° C. and quorum sensing inhibition was detected as a less colored/colourless zone around the disk, where viable cells, indicative of growth but quorum sensing inhibition, were present. Measurements were made from the outer edge of the discs to the edge of the zones of anti-quorum sensing inhibition. The formulation solvent (10% aqueous ethanol) was used as the negative control.
The biosensor strain, C. violaceum CV026, is a mutant of the wild type strain and is unable to produce its own AHL signal. It only responds to exogenous active signal molecules and produces a purple color, violacein. Loss of this purple color around the disk when incubated with exogenous AHL is thus indicative of QS inhibition by the test compounds. More specifically, the zone (mm past the disk) of QS inhibition results in an opaque disc with no purple color but bacterial growth. […] The results are shown below in Table 1, wherein QS denotes quorum sensing.

Escherichia coli O157:H7 = assay: Inhibition of biofilm formation, crystal violet staining assay; conditions: for Biofilm (OD 595 nm): 24 hr; for Biofilm (OD 595 nm) / biofilm formed (CVSA), in words: 30° C.
Procedure: (§1) Biofilm formation was quantified with modifications using the method described by Stepanovic et al. (Journal of Microbiological Methods, 2000, 40(2), 175-19) with modifications. Using a 96-well microplate duplicate the test solutions were filled at the above selected doses. Cultures were grown for 18 hr in LB at 30° C. and adjusted to OD 0.1 at 600 nm. 20 μL of the culture were added into each well and the remainder of the volume to 200 μL per well was filled with LB. Unused external wells were filled with 200 μL of sterile water to prevent evaporation.
(§2) After 24 hr of incubation, supernatants were discarded, and the wells were washed three times with 200 μL of sterile phosphate buffered saline (PBS). Bacteria adhered to the wells were fixed with 200 μL of methanol for 15 min, the methanol was discarded, and the plates dried at 25° C.
(§3) Each well was stained with 200 μL of 0.3% (w/v) crystal violet solution for 5 min at 25° C. Crystal violet excess was pipetted out, and the wells were rinsed five times with sterile PBS. 200 μL of 33% (v/v) glacial acetic acid were added to the wells for 30 min to solubilise the dye adhered to the cell walls. Optical density (OD) was measured at 595 nm using a microplate spectrophotometer as a direct measure of biofilm formation. P. aeruginosa in 3% DMSO will be used as the negative control.
A stock solution of 1000 μg of phenylcapsaicin and capsaicin was prepared by dissolving 1000 μg in 100 μL of ethanol and 900 μL of sterile water. The stock solutions were sequentially diluted with double and then quadruple volumes of solvent (10% aqueous ethanol solution) to yield 500/125/31.25 (32)/7.81 (8) μg/ml test solutions.
E. coli O157:H7 was used to determine the biofilm inhibition activity. Inducer N-hexanoyl homoserine lactone (C6-HSL) was purchased from Sigma-Aldrich. E. coli O157:H7 was cultivated in Luria-Bertani (LB) medium (LB, 5 g yeast extract, 10 g tryptone, 5 g NaCl, 1 L water) at 37° C. overnight under aerobic conditions.
Crystal violet staining assay was performed as in Experiment 3, using E. coli O157:H7 in 3% DMSO as the control.

[2] = tested on: Salmonella enterica subsp. enterica serovar Paratyphi C (ATCC® BAA1714™); assay: Inhibition of biofilm formation with different capsaicyn compounds, crystal violet staining assay (Example 6); conditions: for Biofilm (OD 595 nm): 24 hr; for interference with the biofilm readings, in words: 125 μg/ml dose
Procedure: as §1, §2, §3
A stock solution of 500 μg of phenylcapsaicin, capsaicin, compound a, compound b, compound c, was prepared by dissolving 500 μg in 100 μl of ethanol and 900 μl of sterile water. The stock solutions were sequentially diluted with quadruple volumes of solvent (10% aqueous ethanol solution) to yield 125/31.25 (32)/7.81 (8)/1.95 (2) μg/ml test solutions.
ATCC® BAA1714™ was used to determine the biofilm inhibition activity. Inducer N-hexanoyl homoserine lactone (C6-HSL) was purchased from Sigma-Aldrich. ATCC® BAA1714™ was cultivated in Luria-Bertani (LB) medium (LB, 5 g yeast extract, 10 g tryptone, 5 g NaCl, 1 L water) at 37° C. overnight under aerobic conditions.
Crystal violet staining assay was performed as in Experiment 3, using ATCC® BAA1714™ in 3% DMSO as the control.

[3] = CV026, read-out: Antibacterial (zone of growth inhibition)
[4] = CV026, read-out: QS (zone of quorum sensing inhibition)

SMILES | QS (zone of quorum sensing inhibition) ([1]; 125 μg/mL) | QS (zone of quorum sensing inhibition) ([1]; 250 μg/mL) | QS (zone of quorum sensing inhibition) ([1]; 500 μg/mL) | zone of inhibition at 7.81 µg/mL [1, 3] [mm] | zone of inhibition at 15.63 µg/mL [1, 3] [mm] | zone of inhibition at 31.13 µg/mL [1, 3] [mm] | zone of inhibition at 62.5 µg/mL [1, 3] [mm] | zone of inhibition at 125 µg/mL [1, 3] [mm] | zone of inhibition at 250 µg/mL [1, 3] [mm] | zone of inhibition at 500 µg/mL [1, 3] [mm] | zone of inhibition at 7.81 µg/mL [1, 4] [mm] | zone of inhibition at 15.63 µg/mL [1, 4] [mm] | zone of inhibition at 31.13 µg/mL [1, 4] [mm] | Biofilm (OD 595 nm) (Escherichia coli O157:H7; 8 μg/mL) | Biofilm (OD 595 nm) (Escherichia coli O157:H7; 32 μg/mL) | Biofilm (OD 595 nm) ([2]; 2 μg/mL, 30° C.) | Biofilm (OD 595 nm) ([2]; 8 μg/mL, 30° C.) | Biofilm (OD 595 nm) ([2]; 32 μg/mL, 30° C.) | interference with the biofilm readings, in words [2] | also measured
COc1cc(CNC(=O)CCCCC#Cc2ccccc2)ccc1O [Phenylcapsaicin, N-[(4-hydroxy-3-methoxyphenyl)methyl]-7-phenylhept-6-ynamide] | NO | NO | NO | 0 | 0 | 0 | 3 | 5 | 9 | 10 | 3 | 9 | 11 | 4.9^b OD 595 nm | 2.4^b OD 595 nm | 2.5 | 2.8 | 3.4 | antibacterial interference | quorum sensing inhibiting activity (in words) ([1]; 61.5/31.25/15.625/7.81 μg/ml doses): strong to weak; zone of inhibition at 62.5 µg/mL [1, 4]: 7 mm; antibacterial activity (in words) ([1]; higher doses (500/250/125 μg/ml)): antibacterial activity; biofilm formed (CVSA), in words (Escherichia coli O157:H7; 8 μg/ml lowest dose tested): no effect; biofilm formed (CVSA), in words (Escherichia coli O157:H7; 125 and 32 μg/ml): significantly reduced; also recorded: good inhibitor of biofilm formation; biofilm formed (CVSA), in words ([2]; 32, 8 and 2 μg/ml, 30° C.): significantly reduced; also recorded: good inhibitor of biofilm formation
COc1cc(CNC(=O)CCCC/C=C/C(C)C)ccc1O [Capsaicin, (E)-N-(4-hydroxy-3-methoxybenzyl)-8-methylnon-6-enamide, reference compound] | NO | NO | NO | 0 | 0 | 0 | 8 | 9 | 14 | 11 | 0 | 0 | 0 | 5.9^a OD 595 nm | 5.8^a OD 595 nm | 8.2 | 8.6 | 8.2 | antibacterial interference | QS (zone of quorum sensing inhibition) ([1]; 62.5 μg/mL): NO; quorum sensing inhibiting activity (in words) ([1]; non antibacterial doses (31.25/15.625/7.81 μg/ml)): did not exhibit quorum sensing inhibiting activity; Biofilm (OD 595 nm) (Escherichia coli O157:H7; 125 μg/mL): 5.1^a OD 595 nm; biofilm formation inhibition, in words (Escherichia coli O157:H7; 125, 32 and 8 μg/ml, any dose tested): did not show any reduction of biofilm formation; also recorded: did not exhibit any biofilm formation inhibition; biofilm formation inhibition activity, in words ([2]; any dose tested (125, 32, 8, 2 μg/ml)): did not show reduction biofilm formation
